{
  "source": "patent EP2390266A1",
  "about": "“3-D Conformation of GLIC and allosteric modulation thereof” (priority 2010, dated 2011)",
  "key": {"GLIC": {"molecular_target": "T1, GLIC (Gloeobacter violaceus, UniProt Q7NDN8)", "T1 sequence (Q7NDN8 44-359)": "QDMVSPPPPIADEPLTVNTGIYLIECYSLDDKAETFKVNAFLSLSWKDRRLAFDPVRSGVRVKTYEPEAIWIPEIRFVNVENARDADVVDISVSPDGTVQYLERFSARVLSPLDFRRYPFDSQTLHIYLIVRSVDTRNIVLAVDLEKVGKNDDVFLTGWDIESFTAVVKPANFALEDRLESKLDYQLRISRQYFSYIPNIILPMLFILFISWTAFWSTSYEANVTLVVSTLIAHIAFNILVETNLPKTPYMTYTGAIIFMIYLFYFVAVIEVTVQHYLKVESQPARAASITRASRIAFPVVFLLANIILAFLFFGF", "conditions": "cited from earlier work; for inhibition of GLIC: at clinical concentration; for nH: Hill number of the inhibition curve; for nH / currents inhibited by up to: EC20 concentration (pH 4.7-5.3) of protons; for IC50: currents elicited by an EC20 concentration (pH 4.7-5.3) of protons; for currents inhibited by up to: maximal inhibition"}, "I202W mutated GLIC": {"tested_on": "I202W mutated GLIC", "experiment": "Two-electrode voltage clamp on oocytes, mutant GLIC", "assay_type": "cell-based, Gloebacter violaceus", "description": "(§1) • Figure 3A. […] Xenopus laevis oocytes, holding potential -60 to -40 mV.\n(§2) For desflurane inhibition (figures 3C-3F), full dose-inhibition curves were measured at pH20."}, "V242M mutated GLIC": {"tested_on": "V242M mutated GLIC", "experiment": "Two-electrode voltage clamp on oocytes, mutant GLIC", "assay_type": "cell-based, Gloebacter violaceus", "description": "as §1, §2"}, "I202A mutated GLIC": {"tested_on": "I202A mutated GLIC", "experiment": "Two-electrode voltage clamp on oocytes, mutant GLIC", "assay_type": "cell-based, Gloebacter violaceus", "description": "as §1, §2"}, "T255A mutated GLIC": {"tested_on": "T255A mutated GLIC", "experiment": "Two-electrode voltage clamp on oocytes, mutant GLIC", "assay_type": "cell-based, Gloebacter violaceus", "description": "as §1, §2"}, "I202Y mutated GLIC": {"tested_on": "I202Y mutated GLIC", "experiment": "Two-electrode voltage clamp on oocytes, mutant GLIC", "assay_type": "cell-based, Gloebacter violaceus", "description": "as §1, §2"}, "wild-type GLIC": {"molecular_target": "wild-type GLIC (Gloeobacter violaceus, UniProt Q7NDN8)", "experiment": "cell-based", "description": "(§3) We monitored the inhibitory action of both anesthetics by two-electrode voltage clamp on oocytes expressing the GLIC channel. A typical experiment consists at activating the GLIC channel by an EC20 concentration of protons for 5 min, a period during which anesthetics are applied for 1min, 1 min after the onset of proton application."}, "V242A mutated GLIC": {"tested_on": "V242A mutated GLIC", "description": "as §3\n(§4) Key residues contacting or neighboring propofol and desflurane in the 3D structure were mutated to alanine, or to more bulky residues in order to decrease the size of the binding pocket (mutants I202 A,Y,W, V242 A,M,W, T255A and I258A,M). […] Mutants were first characterized by their trace currents and proton dose-response curve (figures 3C-3F)."}, "I258A mutated GLIC": {"tested_on": "I258A mutated GLIC", "conditions": "activation at pH20 (pH 5.5 to 5.8)", "description": "as §3, §4"}, "I258M mutated GLIC": {"tested_on": "I258M mutated GLIC", "conditions": "activation at pH20 (pH 5.5 to 5.8)", "description": "as §3, §4"}, "[1]": {"conditions": "activation at pH20 (pH 5.5 to 5.8), 10 µM propofol (Fig. 3C)"}, "[2]": {"conditions": "increased sensitivity for propofol"}, "[3]": {"conditions": "activation at pH20 (pH 6.5-6.8), 10 µM propofol (Fig. 3C)"}},
  "data": [
    {"smiles": "CC(O)CC(=O)O", "note": "(stereo not shown) [3-hydroxybutyric acid]", "values": [
      {"measurement": "inhibition of GLIC", "setting": "GLIC", "result": "robustly inhibited"}
    ]},
    {"smiles": "FC(F)OC(F)C(F)(F)F", "note": "(stereo not shown) [desflurane, 2-(difluoromethoxy)-1,1,1,2-tetrafluoro-ethane]", "values": [
      {"measurement": "desflurane inhibition, full dose-inhibition curve compared with WT", "setting": "I202W mutated GLIC; at pH20", "result": "did not alter significantly"},
      {"measurement": "desflurane inhibition, full dose-inhibition curve compared with WT", "setting": "V242M mutated GLIC; at pH20", "result": "did not alter significantly"},
      {"measurement": "desflurane inhibition, full dose-inhibition curve compared with WT", "setting": "I202A mutated GLIC; at pH20", "result": "did not alter significantly"},
      {"measurement": "desflurane inhibition, full dose-inhibition curve compared with WT", "setting": "T255A mutated GLIC; at pH20, decreased sensitivity toward desflurane", "result": "dramatic shift of the curve to the right"},
      {"measurement": "desflurane inhibition, full dose-inhibition curve compared with WT", "setting": "I202Y mutated GLIC; at pH20", "result": "did not alter significantly"},
      {"measurement": "nH", "setting": "GLIC", "result": 0.24},
      {"measurement": "inhibition of GLIC", "setting": "GLIC", "result": "robustly inhibited"},
      {"measurement": "IC50", "setting": "GLIC", "result": 10, "unit": "µM"},
      {"measurement": "currents inhibited by up to", "setting": "GLIC", "result": "up to 90%"}
    ]},
    {"smiles": "CCOC(=O)c1cncn1[C@H](C)c1ccccc1", "note": "[etomidate, ethyl 3-[(1R)-1-phenylethyl]imidazole-4-carboxylate]", "values": [
      {"measurement": "inhibition of GLIC", "setting": "GLIC", "result": "robustly inhibited"}
    ]},
    {"smiles": "CC(C)c1cccc(C(C)C)c1O", "note": "[propofol, 2,6-diisopropylphenol]", "values": [
      {"measurement": "inhibition of GLIC", "setting": "wild-type GLIC; higher proton concentration (at the EC50)", "result": "no longer observed"},
      {"measurement": "inhibition at 10 µM", "setting": "wild-type GLIC; read-out: inhibition of GLIC", "result": 28, "unit": "%"},
      {"measurement": "propofol inhibition compared with WT", "setting": "I202W mutated GLIC; [1]", "result": "not significantly different from WT"},
      {"measurement": "propofol inhibition compared with WT", "setting": "V242M mutated GLIC; [1]", "result": "more inhibited"},
      {"measurement": "propofol dose-inhibition curve compared with wt", "setting": "V242M mutated GLIC; [2]", "result": "shift of the dose-inhibition curve toward the left"},
      {"measurement": "propofol inhibition compared with WT", "setting": "I202A mutated GLIC; [1]", "result": "not significantly different from WT"},
      {"measurement": "propofol inhibition compared with WT", "setting": "T255A mutated GLIC; [3]", "result": "more inhibited"},
      {"measurement": "propofol dose-inhibition curve compared with wt", "setting": "T255A mutated GLIC; [2]", "result": "shift of the dose-inhibition curve toward the left"},
      {"measurement": "propofol inhibition compared with WT", "setting": "I202Y mutated GLIC; [3]", "result": "not significantly different from WT"},
      {"measurement": "nH", "setting": "GLIC", "result": 0.39},
      {"measurement": "inhibition of GLIC", "setting": "GLIC", "result": "robustly inhibited"},
      {"measurement": "IC50", "setting": "GLIC", "result": 0.6, "unit": "µM"},
      {"measurement": "currents inhibited by up to", "setting": "GLIC", "result": "up to 90%"},
      {"measurement": "propofol inhibition compared with WT", "setting": "V242A mutated GLIC; activation at pH20 (pH 5.5 to 5.8)", "result": "more inhibited"},
      {"measurement": "propofol dose-inhibition curve compared with wt", "setting": "V242A mutated GLIC; [2]", "result": "shift of the dose-inhibition curve toward the left"},
      {"measurement": "propofol inhibition compared with WT", "setting": "I258A mutated GLIC", "result": "not significantly different from WT"},
      {"measurement": "propofol inhibition compared with WT", "setting": "I258M mutated GLIC", "result": "not significantly different from WT"}
    ]}
  ]
}
